Measured values taken from US20260283983A1, “PHARMACEUTICAL COMPOSITIONS FOR WOUND CARE” (BIO PROTECTANT TECHNOLOGIES, INC., priority 2023, published 2026).
In brackets after ≈: the same amount, converted by molar mass. Where a SMILES comes first, the peptide text is derived from it. Bridges are numbered along the chain shown (N, C = ends). [ ]: non-standard residue; d: D form. The star is where a group is joined. Ileψ(thiazoline)Cys = CC[C@H](C)[C@H](N)C1=N[C@H](C(=O)*)CS1; dOrn = NCCC[C@@H](N)C(=O)O

Tests used:
[1] = system: S. aureus ATCC 6538; assay: MIC and MBC determination, S. aureus ATCC 6538; format: cell-based; conditions: Staphylococcus aureus
Description: (§1) The MIC and MBC of Formulation B was initially determined using a panel of S. aureus strains (Table 1) including laboratory S. aureus ATCC 6538, bioluminescent S. aureus strain Newman, bioluminescent CA-MRSA strain MW2, and a MRSA clinical isolate.

[2] = system: Bioluminescent CA-MRSA strain MW2; assay: MIC and MBC determination, bioluminescent CA-MRSA strain MW2; format: cell-based, S. aureus; conditions: Staphylococcus aureus
Description: as §1

[3] = system: MRSA clinical isolate; assay: MIC and MBC determination, MRSA clinical isolate; format: cell-based, S. aureus; conditions: Staphylococcus aureus
Description: as §1

[4] = system: bioluminescent MRSA (CA-MRSA); assay: Murine model of wound healing (biopsy punch) infected with bioluminescent MRSA; format: in vivo; conditions: mice infected with 1×10^5 CFU bioluminescent MRSA; 20 μL topically three times daily; two week period; FIG. 1A
Protocol: An exemplary formulation (Formulation A) was tested in the murine model of wound healing (Dunn, Louise, et al. “Murine model of wound healing.” Journal of Visualized Experiments. 75 (2013): e50265-e50265).
• Biopsy punch model performed • Infected with 1×10^5 CFUs bioluminescent MRSA
Wound was imaged then treated with Formulation A
The animals were treated topically with 20 μL of Formulation A, bacitracin, or vehicle three times daily and imaged
The animals were imaged, weight, and their wound was measured daily
The animals were sacrificed and the bacterial burdens were checked in the wound, the liver, the spleen, and the blood.
Tracking of infection and wound healing in mice infected with 1×10^5 CFU bioluminescent MRSA and treated with 20 μL Formulation A, bacitracin (positive control), or vehicle control (N=5 for each treatment group). FIG. 1A: average radiance in the wound bed detected over a two week period. […] Statistical analysis was conducted in GraphPad Prism 6 using a two-way ANOVA test: ***p<0.001; ****p<0.0001. FIG. 1B: box and whisker plots of the wound area over time, beginning on day 4 after the removal of the surgical wound dressing. […] FIG. 1C: plot of the change in weight through the duration of infection and treatment.

[5] = system: Bioluminescent S. aureus strain Newman; assay: MIC and MBC determination, bioluminescent S. aureus strain Newman; format: cell-based; conditions: Staphylococcus aureus
Description: as §1

[6] = system: S. mutans; assay: S. mutans quantitative biofilm reduction assay; format: cell-based; conditions: same treatment concentration; FIG. 6A-6C
Protocol: • Day 1: O/N culture of S. mutans • Day 2: Dilute O/N culture 1:9 in BHI • Place discs in 2 mL diluted culture and incubate 24 h • Day 3 Transfer discs to 2 mL BMGS (culture in BMGS for 1-3 days) • Day 4 1-Day: Transfer discs to 2 mL sterilants for desired incubation time • Transfer discs back to 2 mL BMGS for 24 h • 2-Day: Transfer discs to 2 mL BMGS and incubate for another 24 h • Day 5 1-Day: Sonicate disc and plate 100 μL of different dilutions • 2-Day: Transfer discs to 2 mL sterilants for desired incubation time • Transfer discs back to 2 mL BMGS for 24 h • Day 6 1-Day: Count plates • 2-Day: Sonicate disc and plate 100 μL of different dilutions • Day 7 Count plates

[7] = read-out: Minimum Bactericidal Concentration
[8] = read-out: Minimum Inhibitory Concentration

Molecule: CC[C@H](C)[C@H](N)C1=N[C@H](C(=O)N[C@@H](CC(C)C)C(=O)N[C@H](CCC(=O)O)C(=O)N[C@H](C(=O)N[C@H]2CCCCNC(=O)[C@H](CC(N)=O)NC(=O)[C@@H](CC(=O)O)NC(=O)[C@H](Cc3cnc[nH]3)NC(=O)[C@@H](Cc3ccccc3)NC(=O)[C@H]([C@@H](C)CC)NC(=O)[C@@H](CCCN)NC2=O)[C@@H](C)CC)CS1 [Bacitracin] ({Ileψ(thiazoline)Cys}-L[dE]IK[dOrn]I[dF]H[dD]N; lactam 4-C)
- MBC ([1]; ATCC6538, read-out: Minimum Bactericidal Concentration): 67 µg/mL (≈ 47.1 µM)
- MIC ([1]; ATCC6538, read-out: Minimum Inhibitory Concentration): 67 µg/mL (≈ 47.1 µM)
- MBC [2, 7]: 333 µg/mL (≈ 234 µM)
- MIC [2, 8]: 67 µg/mL (≈ 47.1 µM)
- MBC [3, 7]: 67 µg/mL (≈ 47.1 µM)
- MIC [3, 8]: 67 µg/mL (≈ 47.1 µM)
- bacterial burden, average radiance in the wound bed [4]: completely cleared infection within the first day
- MBC [5, 7]: 333 µg/mL (≈ 234 µM)
- MIC [5, 8]: 67 µg/mL (≈ 47.1 µM)

Molecule: CCCCCCCCCCCCC[N+](C)(C)Cc1ccccc1 [BAK, benzalkonium chloride]
- biofilm accumulation after treatment [6]: approximate equivalence

Molecule: C12-C14 alkyl(ethylbenzyl)dimethylammonium chloride
- biofilm accumulation after treatment [6]: approximate equivalence
